Measurements published in patent publication US20150031674A1, “SERINE/THREONINE KINASE INHIBITORS” (GENENTECH, INC., priority 2013, published 2015).
pKi: −log10 of the molar value.

These compounds were tested against human recombinant PAK1-KD protein (Homo sapiens, UniProt Q13153) (assay: PAK1-KD (Kinase Domain) IC50 Zlyte Assay (FRET peptide substrate phosphorylation)). Details: Z'-LYTE, Biological Example 1.
human recombinant PAK1-KD protein, sequence (Q13153 270-521 limits assumed): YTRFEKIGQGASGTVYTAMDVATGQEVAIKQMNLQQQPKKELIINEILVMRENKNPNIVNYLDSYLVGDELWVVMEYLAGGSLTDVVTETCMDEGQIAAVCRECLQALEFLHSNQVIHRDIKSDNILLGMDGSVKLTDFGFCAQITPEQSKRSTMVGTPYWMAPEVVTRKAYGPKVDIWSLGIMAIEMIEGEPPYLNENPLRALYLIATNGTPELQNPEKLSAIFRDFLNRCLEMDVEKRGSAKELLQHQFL

SMILES | pKi
CCNc1ncc2cc(-c3ccc(-c4cccc(C)n4)cc3C)c(=O)n(CCOCCN)c2n1 [Example I-76, 8-[2-(2-Aminoethoxy)ethyl]-2-(ethylamino)-6-[2-methyl-4-(6-methyl-2-pyridyl)phenyl]pyrido[2,3-d]pyrimidin-7-one] | 8.48
CNc1ncc2cc(-c3ccc(-c4cccc(C)n4)cc3C)c(=O)n(CC3C4CN(C)CC43)c2n1 (centres unmarked) [Example I-186, 2-(methylamino)-8-[(3-methyl-3-azabicyclo[3.1.0]hexan-6-yl)methyl]-6-[2-methyl-4-(6-methyl-2-pyridyl)phenyl]pyrido[2,3-d]pyrimidin-7-one] | 7.92
CCNc1ncc2cc(-c3ccc(-c4cncc(C)n4)cc3Cl)c(=O)n(CC3CCN(CCO)CC3)c2n1 [Example I-39, 6-(2-Chloro-4-(6-methylpyrazin-2-yl)phenyl)-2-(ethylamino)-8-((1-(2-hydroxyethyl)piperidin-4-yl)methyl)pyrido[2,3-d]pyrimidin-7(8H)-one] | 7.40
Cc1cccc(-c2ccc(-c3cc4cnc(NCC(F)F)nc4n(CCC4CNCCO4)c3=O)c(C)c2)n1 (racemic) [Example I-126, 2-(2,2-Difluoroethylamino)-6-[2-methyl-4-(6-methyl-2-pyridyl)phenyl]-8-(2-morpholin-2-ylethyl)pyrido[2,3-d]pyrimidin-7-one] | 8.60
Cc1cncc(-c2ccc(-c3cc4cnc(NC5COC5)nc4n(C[C@@H]4CNCCO4)c3=O)c(Cl)c2)n1 [Example I-149, 6-[2-Chloro-4-(6-methylpyrazin-2-yl)phenyl]-8-[[(2S)-morpholin-2-yl]methyl]-2-(oxetan-3-ylamino)pyrido[2,3-d]pyrimidin-7-one] | 8.05
Cc1cccc(-c2ccc(-c3cc4cnc(NC5COC5)nc4n(C[C@H]4CNCCO4)c3=O)c(Cl)c2)n1 [Example I-159, 6-[2-Chloro-4-(6-methyl-2-pyridyl)phenyl]-8-[[(2R)-morpholin-2-yl]methyl]-2-(oxetan-3-ylamino)pyrido[2,3-d]pyrimidin-7-one] | 7.97
Cc1cncc(-c2ccc(-c3cc4cnc(NC(C)C)nc4n(CCC4CCNC4=O)c3=O)c(Cl)c2)n1 (centres unmarked) [Example I-100, 6-[2-Chloro-4-(6-methylpyrazin-2-yl)phenyl]-2-(isopropylamino)-8-[2-(2-oxopyrrolidin-3-yl)ethyl]pyrido[2,3-d]pyrimidin-7-one] | 7.73
CCc1cc(-c2cccc(C)n2)ccc1-c1cc2cnc(NC3COC3)nc2n(C[C@H]2CNCCO2)c1=O [Example I-193, 6-[2-ethyl-4-(6-methyl-2-pyridyl)phenyl]-8-[[(2R)-morpholin-2-yl]methyl]-2-(oxetan-3-ylamino)pyrido[2,3-d]pyrimidin-7-one] | 7.68
Cc1cccc(-c2ccc(-c3cc4cnc(NC5COC5)nc4n(CCCS(N)(=O)=O)c3=O)c(C)c2)n1 [Example I-161, 3-[6-[2-methyl-4-(6-methyl-2-pyridyl)phenyl]-2-(oxetan-3-ylamino)-7-oxo-pyrido[2,3-d]pyrimidin-8-yl]propane-1-sulfonamide] | 7.66
CCc1cc(-c2cncc(C)n2)ccc1-c1cc2cnc(NC)nc2n(CCOCCN)c1=O [Example I-129, 8-[2-(2-aminoethoxy)ethyl]-6-[2-ethyl-4-(6-methylpyrazin-2-yl)phenyl]-2-(methylamino)pyrido[2,3-d]pyrimidin-7-one] | 7.56
CNc1ncc2cc(-c3ccc(-c4cncc(C)n4)cc3Cl)c(=O)n(CC(=O)NCCO)c2n1 [Example I-85, 2-[6-[2-Chloro-4-(6-methylpyrazin-2-yl)phenyl]-2-(methylamino)-7-oxo-pyrido[2,3-d]pyrimidin-8-yl]-N-(2-hydroxyethyl)acetamide] | 7.03
CCNc1ncc2cc(-c3ccc(-c4cncc(C)n4)cc3Cl)c(=O)n(C(C)COC3CNC3)c2n1 (single isomer, unassigned) [Example I-118, 8-[2-(azetidin-3-yloxy)-1-methyl-ethyl]-6-[2-chloro-4-(6-methylpyrazin-2-yl)phenyl]-2-(ethylamino)pyrido[2,3-d]pyrimidin-7-one] | 7.74
CNc1ncc2cc(-c3ccc(-c4csc(C)n4)cc3Cl)c(=O)n(C[C@@H]3CNCCO3)c2n1 [Example I-179, 6-[2-chloro-4-(2-methylthiazol-4-yl)phenyl]-2-(methylamino)-8-[[(2S)-morpholin-2-yl]methyl]pyrido[2,3-d]pyrimidin-7-one] | 7.18
CCNc1ncc2cc(-c3ccc(-c4cncc(C)n4)cc3Cl)c(=O)n(C3COC4(CNC4)C3)c2n1 (centres unmarked) [Example I-58, 6-(2-Chloro-4-(6-methylpyrazin-2-yl)phenyl)-2-(ethylamino)-8-(5-oxa-2-azaspiro[3.4]octan-7-yl)pyrido[2,3-d]pyrimidin-7(8H)-one] | 7.15
CCNc1ncc2cc(-c3ccc(-c4cncc(C)n4)cc3Cl)c(=O)n(CCC3CCNC(=O)C3)c2n1 (centres unmarked) [Example I-53, 6-[2-chloro-4-(6-methylpyrazin-2-yl)phenyl]-2-(ethylamino)-8-[2-(2-oxo-4-piperidyl)ethyl]pyrido[2,3-d]pyrimidin-7-one] | 7.02
Cc1cccc(-c2ccc(-c3cc4cnc(NC5COC5)nc4n(CCC4CNCCO4)c3=O)c(C)c2)n1 (single isomer, unassigned) [Example I-114, 6-(2-methyl-4-(6-methylpyridin-2-yl)phenyl)-8-(2-(morpholin-2-yl)ethyl)-2-(oxetan-3-ylamino)pyrido[2,3-d]pyrimidin-7(8H)-one] | 9.15
CNc1ncc2cc(-c3ccc(-c4csc(C)n4)cc3Cl)c(=O)n(CCCN)c2n1 [Example I-140, 8-(3-aminopropyl)-6-[2-chloro-4-(2-methylthiazol-4-yl)phenyl]-2-(methylamino)pyrido[2,3-d]pyrimidin-7-one] | 8.09
CNc1ncc2cc(-c3ccc(-c4cccc(C)n4)cc3C)c(=O)n(CCC3CNCCO3)c2n1 (single isomer, unassigned) [Example I-110] | 8.52
Cc1cncc(-c2ccc(-c3cc4cnc(NCC(F)F)nc4n(CCOC4CNC4)c3=O)c(Cl)c2)n1 [Example I-47, 8-[2-(azetidin-3-yloxy)ethyl]-6-[2-chloro-4-(6-methylpyrazin-2-yl)phenyl]-2-(2,2-difluoroethylamino)pyrido[2,3-d]pyrimidin-7-one] | 7.60
CNc1ncc2cc(-c3ccc(-c4cccc(C)n4)cc3Cl)c(=O)n(CC3CCN(C)CC3)c2n1 [Example I-175, 6-[2-chloro-4-(6-methyl-2-pyridyl)phenyl]-2-(methylamino)-8-[(1-methyl-4-piperidyl)methyl]pyrido[2,3-d]pyrimidin-7-one] | 7.70

More lines, in order of rising pKi, values ahead:

pKi | SMILES
5.36 | CNc1ncc2cc(-c3ccc(-c4ncn(C)n4)cc3Cl)c(=O)n(C[C@H]3CNCCO3)c2n1 [Example I-192, 6-[2-chloro-4-(1-methyl-1 2 4-triazol-3-yl)phenyl]-2-(methylamino)-8-[[(2R)-morpholin-2-yl]methyl]pyrido[2,3-d]pyrimidin-7-one]
6.94 | CCNc1ncc2cc(-c3ccc(-c4cncc(C)n4)cc3Cl)c(=O)n(CC3(O)CCN(C)CC3)c2n1 [Example I-105, 6-[2-Chloro-4-(6-methylpyrazin-2-yl)phenyl]-2-(ethylamino)-8-[(4-hydroxy-1-methyl-4-piperidyl)methyl]pyrido[2,3-d]pyrimidin-7-one]
6.97 | CCNc1ncc2cc(-c3ccc(-c4cncc(C)n4)cc3Cl)c(=O)n(CC3(O)CCNCC3)c2n1 [Example I-54, 6-(2-Chloro-4-(6-methylpyrazin-2-yl)phenyl)-2-(ethylamino)-8-((4-hydroxypiperidin-4-yl)methyl)pyrido[2,3-d]pyrimidin-7(8H)-one]
7.51 | CCNc1ncc2cc(-c3ccc(-c4cc(C)cnn4)cc3Cl)c(=O)n(C[C@H]3CC[C@H](N)CC3)c2n1 [Example I-77, 8-(((1R,4R)-4-Aminocyclohexyl)methyl)-6-(2-chloro-4-(5-methylpyridazin-3-yl)phenyl)-2-(ethylamino)pyrido[2,3-d]pyrimidin-7(8H)-one]
7.54 | CCNc1ncc2cc(-c3ccc(-c4cccc(C)n4)cc3C)c(=O)n(CC(=O)N3CCNCC3)c2n1 [Example I-93, 2-(Ethylamino)-6-[2-methyl-4-(6-methyl-2-pyridyl)phenyl]-8-(2-oxo-2-piperazin-1-yl-ethyl)pyrido[2,3-d]pyrimidin-7-one]
7.72 | Cc1cncc(-c2ccc(-c3cc4cnc(NC(C)C)nc4n(CCC4CNC(=O)C4)c3=O)c(Cl)c2)n1 (single isomer, unassigned) [Example I-99, 6-[2-Chloro-4-(6-methylpyrazin-2-yl)phenyl]-2-(isopropylamino)-8-[2-(5-oxopyrrolidin-3-yl)ethyl]pyrido[2,3-d]pyrimidin-7-one]
7.72 | CCNc1ncc2cc(-c3ccc(-c4cccc(C)n4)cc3C)c(=O)n(CCCCO)c2n1 [Example I-73, 2-(Ethylamino)-8-(4-hydroxybutyl)-6-[2-methyl-4-(6-methyl-2-pyridyl)phenyl]pyrido[2,3-d]pyrimidin-7-one]
7.77 | Cc1cccc(-c2ccc(-c3cc4cnc(NC5COC5)nc4n(CCS(N)(=O)=O)c3=O)c(C)c2)n1 [Example I-166]
7.92 | CNc1ncc2cc(-c3ccc(-c4cccc(C)n4)cc3Cl)c(=O)n(CC3(C#N)CCNCC3)c2n1 [Example I-169, 4-[[6-[2-chloro-4-(6-methyl-2-pyridyl)phenyl]-2-(methylamino)-7-oxo-pyrido[2,3-d]pyrimidin-8-yl]methyl]piperidine-4-carbonitrile]
8.80 | Cc1cccc(-c2ccc(-c3cc4cnc(NC(C)C)nc4n(CCN4CCNCC4)c3=O)c(Cl)c2)n1 [Example I-68, 6-(2-Chloro-4-(6-methylpyridin-2-yl)phenyl)-2-(isopropylamino)-8-(2-(piperazin-1-yl)ethyl)pyrido[2,3-d]pyrimidin-7(8H)-one]
8.85 | CCNc1ncc2cc(-c3ccc(-c4cccc(C)n4)cc3C)c(=O)n(CCC3CNCCO3)c2n1 (single isomer, unassigned) [Example I-115]
9.30 | Cc1cccc(-c2ccc(-c3cc4cnc(NC(C)C)nc4n(C[C@H]4CC[C@H](N)CC4)c3=O)c(Cl)c2)n1 [Example I-32, 8-[(4-aminocyclohexyl)methyl]-6-[2-chloro-4-(6-methyl-2-pyridyl)phenyl]-2-(isopropylamino)pyrido[2,3-d]pyrimidin-7-one]
